Molecules are shown by their SMILES.

Series [1] concerns P-glycoprotein. The settings on record: cited from earlier work.
The nature of series [2]: Cobimetinib plasma pharmacokinetics in iMATRIX-cobi. The class given is in vivo, human. Conditions: for Cmax: human, plasma, oral, 1 mg/kg, Steady state Cmax, geometric mean (%CV), 1.0 mg/kg suspension.
Series [3] has as its system xenograft models of pediatric solid tumors. The settings on record: ref Roche data on file; cited from earlier work.
Series [4] deals with pediatric cancer cell lines. Conditions: ref Roche data on file; cited from earlier work.

On to `O=C(c1ccc(F)c(F)c1Nc1ccc(I)cc1F)N1CC(O)([C@@H]2CCCCN2)C1` [cobimetinib], for which the P-glycoprotein substrate entry in series [1] is given as “substrate of P-glycoprotein”. For the same compound, the results for the Cmax in series [2] (dose escalation (n = 8)) and in series [2] (expansion (n = 9)) were 179 ng/mL and 116 ng/mL, respectively. In series [2] (pediatric patients), the Exposure-safety relationships result was “no exposure-safety relationships”. In addition, the “Activity in xenograft models” value in series [3] is “activity observed”. The Cytotoxic effects entry in series [4] is listed as “Cytotoxic effects”.

The values are drawn from PMC9217999 (Targeted Oncology, 2022).
